Data on 5 molecules can be found in patent US11981658B2, “Substituted aminopyridine compounds as EGFR inhibitors” (YUHAN CORPORATION, priority 2021, dated 2024).

The target of one experiment is EGFR Del19/C797S (Homo sapiens, UniProt P00533, C797S/DEL746-750). Kind of experiment: Biochemical EGFR kinase inhibition assay (Lance Ultra TR-FRET), double mutant del19/C797S. A digest of the protocol:
(§1)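 In this biochemical assay, phosphorylation after a one-hour room-temperature reaction was detected with europium-labelled anti-phosphopeptide antibody at 2 nM final concentration.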

Another experiment deals with EGFR L858R/T790M/C797S (Homo sapiens, UniProt P00533, C797S/L858R/T790M). Nature of the experiment: Biochemical EGFR kinase inhibition assay (Lance Ultra TR-FRET), triple mutant L858R/T790M/C797S. A digest of the protocol:
as §1
A general note: TR-FRET usually uses a lanthanide donor and a delayed reading to cut background.

In another experiment the target is EGFR L858R/C797S (Homo sapiens, UniProt P00533, C797S/L858R). Nature of the experiment: Biochemical EGFR kinase inhibition assay (Lance Ultra TR-FRET), double mutant L858R/C797S. A digest of the protocol: as §1
The next experiment concerns the target EGFR wildtype (WT) (Homo sapiens, UniProt P00533). Nature of the experiment: Biochemical EGFR kinase inhibition assay (Lance Ultra TR-FRET), wildtype. A digest of the protocol:
as §1

A further experiment concerns the target EGFR Del19/T790M/C797S (Homo sapiens, UniProt P00533, C797S/DEL746-750/T790M). Nature of the experiment: Biochemical EGFR kinase inhibition assay (Lance Ultra TR-FRET), triple mutant del19/T790M/C797S. A digest of the protocol:
as §1

Where [1] appears, read: ATP at Km, read-out: IC50 Del19/C797S (nM), Km ATP.
The mark [2] stands for this setting: IC50 Del19/C797S (nM), 100 μM ATP.
The mark [3] stands for this setting: ATP at Km, read-out: IC50 L858R/T790M/C797S (nM), Km ATP.
[4] abbreviates: IC50 L858R/T790M/C797S (nM), 100 μM ATP.
The mark [5] stands for this setting: ATP at Km, read-out: IC50 L858R/C797S (nM), Km ATP.
Setting [6] is: IC50 L858R/C797S (nM), 100 μM ATP.
Setting [7] is: ATP at Km, read-out: IC50 WT (nM), Km ATP.
Where [8] appears, read: ATP at Km, read-out: IC50 Del19/T790M/C797S (nM), Km ATP.
Where [9] appears, read: IC50 Del19/T790M/C797S (nM), 100 μM ATP.

Like-named read-outs stand apart in the source and are kept apart here.

EGFR wildtype (WT), sequence (P00533 25-1210): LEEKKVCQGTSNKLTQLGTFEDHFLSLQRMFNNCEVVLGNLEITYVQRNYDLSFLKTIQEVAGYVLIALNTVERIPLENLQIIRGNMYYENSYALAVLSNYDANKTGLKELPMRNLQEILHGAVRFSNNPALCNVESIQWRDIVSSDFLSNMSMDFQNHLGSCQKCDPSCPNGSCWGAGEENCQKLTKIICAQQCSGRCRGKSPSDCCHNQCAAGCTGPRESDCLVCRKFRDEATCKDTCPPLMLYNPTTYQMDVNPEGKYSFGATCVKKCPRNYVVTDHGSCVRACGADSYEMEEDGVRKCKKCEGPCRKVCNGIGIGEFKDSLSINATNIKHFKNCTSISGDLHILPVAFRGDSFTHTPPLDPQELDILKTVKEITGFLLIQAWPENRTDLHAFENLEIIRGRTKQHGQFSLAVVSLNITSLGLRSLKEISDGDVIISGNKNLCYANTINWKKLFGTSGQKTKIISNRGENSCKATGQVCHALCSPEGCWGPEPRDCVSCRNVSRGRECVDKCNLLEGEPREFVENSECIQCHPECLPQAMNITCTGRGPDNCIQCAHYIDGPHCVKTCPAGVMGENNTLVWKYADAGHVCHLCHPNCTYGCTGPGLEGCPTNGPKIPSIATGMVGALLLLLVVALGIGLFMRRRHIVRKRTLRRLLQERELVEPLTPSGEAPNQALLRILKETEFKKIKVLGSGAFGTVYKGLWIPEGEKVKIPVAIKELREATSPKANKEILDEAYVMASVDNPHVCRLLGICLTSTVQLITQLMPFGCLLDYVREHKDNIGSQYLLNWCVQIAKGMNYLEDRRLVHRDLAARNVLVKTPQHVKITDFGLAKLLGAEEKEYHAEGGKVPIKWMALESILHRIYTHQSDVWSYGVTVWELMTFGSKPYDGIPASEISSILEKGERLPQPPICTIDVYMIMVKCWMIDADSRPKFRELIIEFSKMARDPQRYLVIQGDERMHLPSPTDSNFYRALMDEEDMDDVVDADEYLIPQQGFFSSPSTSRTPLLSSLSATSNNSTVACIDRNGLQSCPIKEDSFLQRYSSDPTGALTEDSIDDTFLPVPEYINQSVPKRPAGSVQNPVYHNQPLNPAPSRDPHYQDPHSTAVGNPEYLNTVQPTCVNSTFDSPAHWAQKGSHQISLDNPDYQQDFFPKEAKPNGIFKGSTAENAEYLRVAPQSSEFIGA
EGFR L858R/T790M/C797S, sequence (P00533 25-1210 T790M/C797S/L858R): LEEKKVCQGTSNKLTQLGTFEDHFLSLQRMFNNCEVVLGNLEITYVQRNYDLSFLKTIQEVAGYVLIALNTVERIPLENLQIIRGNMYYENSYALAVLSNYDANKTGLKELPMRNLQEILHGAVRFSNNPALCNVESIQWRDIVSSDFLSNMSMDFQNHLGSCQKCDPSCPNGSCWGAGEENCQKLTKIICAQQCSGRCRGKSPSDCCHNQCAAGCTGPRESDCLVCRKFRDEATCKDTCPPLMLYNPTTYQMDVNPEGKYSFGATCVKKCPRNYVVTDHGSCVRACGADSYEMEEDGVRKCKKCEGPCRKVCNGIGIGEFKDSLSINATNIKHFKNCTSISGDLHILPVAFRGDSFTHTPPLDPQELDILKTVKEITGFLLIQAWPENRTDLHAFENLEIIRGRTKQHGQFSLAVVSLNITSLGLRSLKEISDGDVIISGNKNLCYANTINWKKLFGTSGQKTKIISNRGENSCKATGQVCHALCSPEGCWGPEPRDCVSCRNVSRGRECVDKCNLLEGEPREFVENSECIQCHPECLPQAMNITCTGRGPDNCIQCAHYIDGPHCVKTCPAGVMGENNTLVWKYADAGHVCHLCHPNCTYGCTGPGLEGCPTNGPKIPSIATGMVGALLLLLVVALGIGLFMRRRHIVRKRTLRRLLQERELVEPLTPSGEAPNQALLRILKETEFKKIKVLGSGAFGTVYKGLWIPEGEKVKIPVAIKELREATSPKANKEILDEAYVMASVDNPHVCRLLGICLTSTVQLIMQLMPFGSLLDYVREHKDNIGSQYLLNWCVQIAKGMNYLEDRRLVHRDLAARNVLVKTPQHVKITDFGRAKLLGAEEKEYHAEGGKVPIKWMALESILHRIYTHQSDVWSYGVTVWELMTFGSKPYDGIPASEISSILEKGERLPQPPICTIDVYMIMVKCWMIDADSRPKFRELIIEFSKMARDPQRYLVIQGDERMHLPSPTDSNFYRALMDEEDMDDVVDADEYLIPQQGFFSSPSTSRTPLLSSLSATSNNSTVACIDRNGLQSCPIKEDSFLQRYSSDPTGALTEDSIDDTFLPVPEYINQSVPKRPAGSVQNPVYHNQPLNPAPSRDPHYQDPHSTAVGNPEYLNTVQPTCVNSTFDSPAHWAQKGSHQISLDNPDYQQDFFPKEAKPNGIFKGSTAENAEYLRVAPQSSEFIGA
EGFR Del19/T790M/C797S, sequence (P00533 with tags, fused parts or gaps DEL746-750/T790M/C797S): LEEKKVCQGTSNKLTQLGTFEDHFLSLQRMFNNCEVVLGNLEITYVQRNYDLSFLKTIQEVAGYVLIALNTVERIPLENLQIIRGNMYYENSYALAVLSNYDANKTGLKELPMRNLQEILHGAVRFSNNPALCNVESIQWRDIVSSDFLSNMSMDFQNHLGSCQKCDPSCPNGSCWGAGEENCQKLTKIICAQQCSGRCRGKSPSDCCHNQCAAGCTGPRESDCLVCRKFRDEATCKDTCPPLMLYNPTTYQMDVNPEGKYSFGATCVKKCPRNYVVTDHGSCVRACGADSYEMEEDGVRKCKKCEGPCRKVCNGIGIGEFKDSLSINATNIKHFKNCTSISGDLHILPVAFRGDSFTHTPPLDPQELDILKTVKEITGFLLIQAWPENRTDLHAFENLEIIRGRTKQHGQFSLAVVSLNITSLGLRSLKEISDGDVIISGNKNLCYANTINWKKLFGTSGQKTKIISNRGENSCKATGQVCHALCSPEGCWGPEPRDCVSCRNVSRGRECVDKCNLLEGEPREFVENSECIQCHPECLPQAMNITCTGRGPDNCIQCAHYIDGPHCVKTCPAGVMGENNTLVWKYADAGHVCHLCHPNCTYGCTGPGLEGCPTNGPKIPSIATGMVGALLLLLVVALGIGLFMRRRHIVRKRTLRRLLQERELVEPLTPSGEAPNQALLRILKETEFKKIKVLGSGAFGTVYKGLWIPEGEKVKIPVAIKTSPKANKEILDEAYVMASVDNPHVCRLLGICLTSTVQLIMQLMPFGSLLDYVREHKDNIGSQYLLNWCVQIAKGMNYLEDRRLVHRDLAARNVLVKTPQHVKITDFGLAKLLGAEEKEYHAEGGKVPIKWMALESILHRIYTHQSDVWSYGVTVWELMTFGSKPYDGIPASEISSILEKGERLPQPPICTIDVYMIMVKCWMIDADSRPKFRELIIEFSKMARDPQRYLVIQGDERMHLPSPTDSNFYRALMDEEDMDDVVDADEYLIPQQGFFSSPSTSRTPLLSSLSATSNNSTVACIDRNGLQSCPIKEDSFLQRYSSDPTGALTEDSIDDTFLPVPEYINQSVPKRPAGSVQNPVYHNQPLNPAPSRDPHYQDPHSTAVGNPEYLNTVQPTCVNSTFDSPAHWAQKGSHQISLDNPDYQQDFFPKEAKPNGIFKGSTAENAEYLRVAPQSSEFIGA
EGFR L858R/C797S, sequence (P00533 25-1210 C797S/L858R): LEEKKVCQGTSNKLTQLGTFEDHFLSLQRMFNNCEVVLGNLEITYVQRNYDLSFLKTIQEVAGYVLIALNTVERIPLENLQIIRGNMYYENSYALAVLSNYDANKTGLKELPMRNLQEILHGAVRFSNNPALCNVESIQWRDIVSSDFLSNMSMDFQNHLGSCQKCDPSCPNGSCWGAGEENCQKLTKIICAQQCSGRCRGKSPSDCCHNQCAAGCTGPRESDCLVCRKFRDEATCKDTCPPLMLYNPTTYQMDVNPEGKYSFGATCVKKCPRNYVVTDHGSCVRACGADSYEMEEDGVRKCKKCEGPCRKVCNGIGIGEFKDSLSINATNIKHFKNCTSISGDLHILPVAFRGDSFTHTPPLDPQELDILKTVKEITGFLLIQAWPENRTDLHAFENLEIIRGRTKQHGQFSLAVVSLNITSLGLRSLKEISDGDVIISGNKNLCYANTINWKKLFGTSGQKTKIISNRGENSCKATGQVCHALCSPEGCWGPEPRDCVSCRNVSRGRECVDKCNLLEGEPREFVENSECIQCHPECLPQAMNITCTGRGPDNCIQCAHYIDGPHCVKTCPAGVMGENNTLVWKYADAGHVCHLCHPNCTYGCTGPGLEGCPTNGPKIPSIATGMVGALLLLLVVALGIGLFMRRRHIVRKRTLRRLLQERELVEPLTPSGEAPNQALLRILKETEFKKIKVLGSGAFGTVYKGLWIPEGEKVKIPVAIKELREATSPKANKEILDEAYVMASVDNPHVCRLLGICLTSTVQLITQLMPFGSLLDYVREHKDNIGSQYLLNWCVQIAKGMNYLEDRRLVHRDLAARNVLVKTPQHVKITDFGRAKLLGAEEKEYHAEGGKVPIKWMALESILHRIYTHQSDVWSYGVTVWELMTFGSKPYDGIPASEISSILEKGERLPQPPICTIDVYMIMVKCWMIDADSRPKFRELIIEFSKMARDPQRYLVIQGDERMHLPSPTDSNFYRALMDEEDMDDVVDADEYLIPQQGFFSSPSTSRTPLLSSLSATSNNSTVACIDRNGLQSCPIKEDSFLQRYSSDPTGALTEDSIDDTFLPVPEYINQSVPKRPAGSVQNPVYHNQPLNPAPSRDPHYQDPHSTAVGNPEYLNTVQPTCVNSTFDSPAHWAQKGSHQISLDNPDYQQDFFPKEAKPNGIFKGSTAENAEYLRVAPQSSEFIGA

`CNCCC1CCN(c2cc(Nc3ccnc(-c4cnn(S(=O)(=O)C5CC5)c4)n3)ncc2C#Cc2cnn(C)c2)CC1` [Example 153, 2-(1-(Cyclopropylsulfonyl)-1H-pyrazol-4-yl)-N-(5-((1-methyl-1H-pyrazol-4-yl)ethynyl)-4-(4-(2-(methylamino)ethyl)piperidin-1-yl)pyridin-2-yl)pyrimidin-4-amine]: the IC50 on EGFR Del19/C797S (setting [1]) was found to be 0.3 nM; at EGFR Del19/C797S (setting [2]), 0.3 nM; at EGFR L858R/T790M/C797S (setting [3]), 0.04 nM; on EGFR L858R/T790M/C797S (setting [4]), 0.1 nM; at EGFR L858R/C797S (setting [5]), 1.8 nM; on EGFR L858R/C797S (setting [6]), 5.1 nM. Further, the IC50 at EGFR wildtype (WT) (setting [7]) was found to be 1.9 nM; on EGFR wildtype (WT) (IC50 WT (nM), 100 μM ATP) it was 822 nM; at EGFR Del19/T790M/C797S (setting [8]), 0.1 nM; on EGFR Del19/T790M/C797S (setting [9]), 0.1 nM.
For `CN(C)C(C)(C)CNC1CCN(c2cc(Nc3ccnc(-c4cnn(S(=O)(=O)C5CC5)c4)n3)ncc2C#Cc2cnn(C)c2)CC1` [Example 134, N^4-(1-(2-((2-(1-(Cyclopropylsulfonyl)-1H-pyrazol-4-yl)pyrimidin-4-yl)amino)-5-((1-methyl-1H-pyrazol-4-yl)ethynyl)pyridin-4-yl)piperidin-4-yl)-N^2,N^2,2-trimethylpropane-1,2-diamine], the IC50 amounted to 2.3 nM at EGFR Del19/C797S (setting [2]); 1.5 nM at EGFR Del19/C797S (Km ATP, read-out: IC50 Del19/C797S (nM) Km ATP); 0.9 nM against EGFR L858R/T790M/C797S (setting [4]); 0.1 nM at EGFR L858R/T790M/C797S (Km ATP, read-out: IC50 L858R/T790M/C797S (nM) Km ATP); 121 nM against EGFR L858R/C797S (setting [6]); 5.6 nM at EGFR L858R/C797S (Km ATP, read-out: IC50 L858R/C797S (nM) Km ATP). The IC50 at EGFR wildtype (WT) (IC50 WT (nM), 100 μM ATP) was above 10000 nM; at EGFR wildtype (WT) (Km ATP, read-out: IC50 WT (nM) Km ATP), 40.5 nM; against EGFR Del19/T790M/C797S (setting [9]), 0.4 nM; at EGFR Del19/T790M/C797S (Km ATP, read-out: IC50 Del19/T790M/C797S (nM) Km ATP) it was 0.4 nM.
As for `CC1(CO)CCN(c2cc(Nc3ccnc(-c4cnn(S(=O)(=O)C5CC5)c4)n3)ncc2C#Cc2cnn(C3CCOC3)c2)CC1` (stereo not drawn) [Example 244, (1-(2-((2-(1-(Cyclopropylsulfonyl)-1H-pyrazol-4-yl)pyrimidin-4-yl)amino)-5-((1-(tetrahydrofuran-3-yl)-1H-pyrazol-4-yl)ethynyl)pyridin-4-yl)-4-methylpiperidin-4-yl)methanol], the IC50 at EGFR Del19/C797S (setting [1]) was determined as 0.6 nM; against EGFR Del19/C797S (setting [2]), 0.5 nM; on EGFR L858R/T790M/C797S (setting [3]) it was 0.5 nM; against EGFR L858R/T790M/C797S (setting [4]), 1.5 nM; on EGFR L858R/C797S (setting [5]) it was 1 nM; against EGFR L858R/C797S (setting [6]) it was 3.1 nM. Also, the IC50 on EGFR wildtype (WT) (setting [7]) was found to be 6 nM; against EGFR wildtype (WT) (IC50 WT (nM), 100 μM ATP) it was 418 nM; at EGFR Del19/T790M/C797S (setting [8]) it was 0.8 nM; on EGFR Del19/T790M/C797S (setting [9]), 1.3 nM.
Turning to `O=S(=O)(C1CC1)n1cc(-c2nccc(Nc3cc(N4CCC(CO)CC4)c(C#Cc4cnn(C5CC5(F)F)c4)cn3)n2)cn1` (stereo not drawn) [Example 83, (1-(2-((2-(1-(Cyclopropylsulfonyl)-1H-pyrazol-4-yl)pyrimidin-4-yl)amino)-5-((1-(2,2-difluorocyclopropyl)-1H-pyrazol-4-yl)ethynyl)pyridin-4-yl)piperidin-4-yl)methanol], the IC50 was 4 nM on EGFR Del19/C797S (setting [2]); 2.5 nM against EGFR L858R/T790M/C797S (setting [4]); 24.4 nM against EGFR L858R/C797S (setting [6]); above 10000 nM against EGFR wildtype (WT) (IC50 WT (nM), 100 μM ATP); 1.3 nM against EGFR Del19/T790M/C797S (setting [9]).
For `CN(C)C(=O)c1ccc(C#Cc2cnc(Nc3ccnc(-c4cnn(S(=O)(=O)C5CC5)c4)n3)cc2N2CCC(C)(CO)CC2)cc1` [Example 262, 4-((6-((2-(1-(Cyclopropylsulfonyl)-1H-pyrazol-4-yl)pyrimidin-4-yl)amino)-4-(4-(hydroxymethyl)-4-methylpiperidin-1-yl)pyridin-3-yl)ethynyl)-N,N-dimethylbenzamide], the IC50 at EGFR Del19/C797S (setting [1]) was 0.8 nM; on EGFR Del19/C797S (setting [2]), 1.1 nM; on EGFR L858R/T790M/C797S (setting [3]), 0.4 nM; on EGFR L858R/T790M/C797S (setting [4]), 1.3 nM; at EGFR L858R/C797S (setting [5]) it was 0.9 nM; against EGFR L858R/C797S (setting [6]) it was 5.7 nM. For the same molecule, the IC50 was 4.4 nM at EGFR wildtype (WT) (setting [7]); above 10000 nM against EGFR wildtype (WT) (IC50 WT (nM), 100 μM ATP); 1.2 nM on EGFR Del19/T790M/C797S (setting [8]); 1.4 nM against EGFR Del19/T790M/C797S (setting [9]).
